Where two headings read alike, the source gives them in different places.
Experiments:
[1] = cited from earlier work
[2] = Cytotoxicity assay (MTT) on Vero cells; type: cell-based; details: monkey, five days, read-out: VERO CELL CC50
Experimental: Epithelial kidney monkey Vero cells were incubated at 37 °C in 96-well plates under an atmosphere of 5% CO2, using RPMI-1640 medium (Sigma-Aldrich, St. Louis, MO, USA) supplemented with 0.05% gentamicin (50 mg/mL) and 10% FBS (fetal bovine serum; Gibco, Invitrogen, Carlsbad, CA, USA). Cells were allowed to adhere for one day before incubation for five days with the compounds. Doxorubicin and DMSO were used as positive and negative controls, respectively. When the incubation period ended, 3-(4, 5-di-methyl-thiazol-2-yl)-2, 5-di-phenyl-tetra-zolium bromide (MTT) was added to the wells, and after 4 h, absorbance was measured at 570 nm using a color plate reader. Cytotoxicity was assessed colorimetrically by calculating the capacity of the remaining Vero cells to reduce the yellow MTT into the dark purple formazan product, as reported.
(§1) All bioassays represent independent analysis and were carried out in duplicate. The data analysis complement Wizard of Excel 2000 (Microsoft, Seattle, WA, USA) was used for the statistical analysis of the 50% inhibiting (IC50) and cytotoxic (CC50) concentration values by adjusting the dose-response curve to a sigmoidal model.

T. cruzi trypomastigotes = assay: Anti-trypanosomal bioassay, T. cruzi Tulahuen clone C4 expressing β-galactosidase; type: cell-based, Trypanosoma cruzi; details: for EC50: Trypanosoma cruzi, 120 h, read-out: T. cruzi EC50; for Inhibition of the growth of T. cruzi trypomastigotes (in words): four concentrations, screening concentration of 10 µg/mL
Experimental: Anti-trypanosomal bioassays were performed using the recombinant strain Tulahuen, clone C4, of T. cruzi in the form of trypomastigotes (ATCC, Manassas, VA, USA). This strain expresses the enzyme β-galactosidase. The parasites were incubated at 37 °C under an atmosphere of 5% CO2 in RPMI-1640 culture medium supplemented with L-glutamine,4-(2-hydroxyethyl)-piperazine-1-ethanesulfonic acid (HEPES) buffer, NaHCO3, 10% FBS and 0.05% gentamicin (50 mg/mL). Epithelial kidney monkey Vero cells (ATCC, Manassas, VA, USA) were incubated for 24 h and then infected with the parasites 24 h prior to the addition of the compounds. After additional 24 h of infection, the compounds (1–7) were dissolved in DMSO and tested at 10, 2, 0.4 and 0.08 µg/mL for five days. The drug benznidazole was used as a positive control. Chlorophenol-red-β-D-galactopyranoside (Roche Applied Science) was added to each well and then allowed to react with the β-galactosidase of the rest of the living parasites for 4.5 h to quantify the biological activity. Absorbance was measured at 570 nm using a plate reader (Sinergy HT, BioTek Instruments Inc., Winooski, VT, USA).
as §1

[3] = system: Batrachochytrium dendrobatidis; details: cited from earlier work
T. cruzi [4] = details: previous study; cited from earlier work
erythrocytes = details: cited from earlier work
mouse macrophages = details: cited from earlier work
T. cruzi [5] = system: T. cruzi; design: method as in PMID 32061723; details: read-out: IC50 anti-trypanosomal activity; cited from earlier work
Vero cells = system: Vero cells; design: method as in PMID 32061723; details: in comparison with bufadienolide 7; cited from earlier work
(Na+)ATPase = details: cited from earlier work
[6] = trypomastigote form, Tulahuen clone C4, five days, tested at 10, 2, 0.4 and 0.08 µg/mL
[7] = monkey (Vero host cells), Trypanosoma cruzi (parasite), read-out: Selectivity (CC50/EC50)

Row | SMILES | CC50 [2] | EC50 (T. cruzi trypomastigotes; [6]) | Inhibition of the growth of T. cruzi trypomastigotes (in words) (T. cruzi trypomastigotes) | selectivity ratio (T. cruzi trypomastigotes; [7]) | also measured
1 | Clc1ccc(C2CC3CCC2N3)cn1 (stereo not drawn) [epibatidine] |  |  |  |  | Analgesic potency relative to morphine [1]: 200 times more potent than morphine
2 | CC(=O)O[C@H]1[C@H]2O[C@]23[C@@H]2CC[C@]4(O)C[C@@H](O)CC[C@]4(C)[C@H]2CC[C@]3(C)[C@H]1c1ccc(=O)oc1 [Compound 5, cinobufotalin] | 1.88 ± 0.2 µM | 27.8 ± 3.77 µM | reduce the growth | 0.07 | 
3 | C[C@]12CC[C@H](O)C[C@H]1CC[C@@H]1[C@@H]2[C@H](O)C(=O)[C@]2(C)[C@@H](c3ccc(=O)oc3)CC[C@]12O [Arenobufagin] |  |  |  |  | Inhibition of Batrachochytrium dendrobatidis in vitro (in words) [3]: inhibit
4 | C[C@]12CC[C@H]3[C@@H](CC[C@]4(O)C[C@@H](O)CC[C@]34C=O)[C@@]1(O)CC[C@@H]2c1ccc(=O)oc1 [hellebrigenin] |  |  |  |  | Trypanocidal activity (T. cruzi [4]): 91.7 µg/mL; Cytotoxicity on erythrocytes (in words) (erythrocytes): no toxic effects; Cytotoxicity on mouse macrophages (in words) (mouse macrophages): no toxic effects
5 | O=C(Cn1ccnc1[N+](=O)[O-])NCc1ccccc1 [Benznidazole, reference compound] | 51.4 ± 6 µM | 2.73 ± 0.1 µM |  | 18.8 | 
6 | COc1cccc2c1C(=O)c1c(O)c3c(c(O)c1C2=O)C[C@@](O)(C(=O)CO)C[C@@H]3O[C@H]1C[C@H](N)[C@H](O)[C@H](C)O1 [Doxorubicin, reference compound] | 0.23 µM |  |  |  | 
7 | CC12CCC3C(CCC4(O)CC(O)CCC34C=O)C1(O)CC(O)C2c1ccc(=O)oc1 (stereo not drawn) [Compound 1, 16β-hydroxyl-hellebrigenin] | > 135 µM | 22.8 ± 4.11 µM | reduce the growth | > 5 | 
8 | C[C@]12CC[C@H](O)C[C@@]1(O)CC[C@@H]1[C@@H]2CC[C@]2(C)[C@@H](c3ccc(=O)oc3)CC[C@]12O [telocinobufagin] |  |  |  |  | Trypanocidal activity (T. cruzi [4]): inactive; Cytotoxicity on erythrocytes (in words) (erythrocytes): no toxic effects; Cytotoxicity on mouse macrophages (in words) (mouse macrophages): no toxic effects; Inhibition of Batrachochytrium dendrobatidis in vitro (in words) [3]: inhibit
9 | CC(=O)O[C@H]1C[C@]2(O)[C@@H]3CC[C@@H]4C[C@@H](O)CC[C@]4(C)[C@H]3CC[C@]2(C)[C@H]1c1ccc(=O)oc1 [Compound 4, bufotalin] | > 46 µM | 19.6 ± 2 µM | reduce the growth | > 2 | 
10 | C[C@]12CC[C@H](O)C[C@H]1CC[C@@H]1[C@@H]2CC[C@]2(C)[C@@H](c3ccc(=O)oc3)[C@@H](O)C[C@]12O [Compound 2, desacetyl-bufotalin] | > 28 µM |  |  |  | melting point: 71 °C; T. cruzi EC50 (T. cruzi trypomastigotes; [6]): Inactive
11 | C[C@]12CC[C@H]3[C@@H](CC[C@@H]4C[C@@H](O)CC[C@@]43CO)[C@@]1(O)CC[C@@H]2c1ccc(=O)oc1 [19-hydroxy-bufalin] |  |  |  |  | IC50 (T. cruzi [5]): 19.4 µM; Cytotoxicity against Vero cells (in words) (Vero cells): low cytotoxicity
12 | C[C@@H]1O[C@@H](O[C@H]2C[C@@H](O)[C@]3(CO)[C@H]4[C@H](O)C[C@]5(C)[C@@H](C6=CC(=O)OC6)CC[C@]5(O)[C@@H]4CC[C@]3(O)C2)[C@H](O)[C@H](O)[C@H]1O [ouabain] |  |  |  |  | Inhibition of enzymatic activity of (Na+)ATPase (in words) ((Na+)ATPase): not inhibited
13 | CCC(=O)OC1C(c2ccc(=O)oc2)C2(C)CCC3C(CCC4(O)CC(O)CCC34C=O)C23OC13 (stereo not drawn) [Compound 3, 19-formyl-dyscinobufotalin] | 0.22 ± 0.09 µM | 0.19 ± 0.07 µM | reduce the growth | 1.16 | 
14 | CCC(=O)OC1C(c2ccc(=O)oc2)C2(C)CCC3C(CCC4(O)CC(O)CCC34C)C23OC13 (stereo not drawn) [Compound 6, dyscinobufotalin] | 0.02 ± 0.002 µM | 12.3 ± 1.87 µM | reduce the growth | < 0.01 | 
15 | C[C@]12CC[C@H](O)C[C@H]1CC[C@@H]1[C@@H]2CC[C@]2(C)[C@@H](c3ccc(=O)oc3)CC[C@]12O [Compound 7, bufalin] |  |  | reduce the growth |  | CC50 at 5 days [2]: 10.6 ± 1.54 µM; EC50 (T. cruzi trypomastigotes; TULAHUEN): 3.93 ± 0.57 µM; Selectivity (CC50/EC50) (T. cruzi trypomastigotes; cytotoxicity on Vero cells/anti-trypanosomal activity ratio): 2.69; selectivity ratio at 5 days (T. cruzi trypomastigotes; monkey (Vero host cells), Trypanosoma cruzi (parasite), cytotoxicity on Vero cells/anti-trypanosomal activity ratio, read-out: Selectivity (CC50/EC50)): 2.7
16 | C[C@]12CC[C@H](O)C[C@H]1CC[C@@H]1[C@@H]2[C@H](O)C[C@]2(C)[C@@H](c3ccc(=O)oc3)CC[C@]12O [γ-bufotalin] |  |  |  |  | Inhibition of Batrachochytrium dendrobatidis in vitro (in words) [3]: inhibit

— publication PMC10779871, “Anti-Trypanosomal Bufadienolides from the Oocytes of the Toad Rhinella alata (Anura, Bufonidae)” (Molecules, 2023)
